Test results from US8946247B2, “Quinazoline carboxamide azetidines” (Merck Patent GmbH, priority 2010, dated 2015).

Columns and labels:
Aurora B = target: T1, Aurora B (Homo sapiens, UniProt Q96GD4); experiment: Aurora B Kinase Assay; format: biochemical; settings: GST-Aurora B (1-344), 10 uM ATP, 90 min at 25 C
T1 construct: GST-Aurora B (1-344 amino acids); GST (N); purchased Carna Biosciences 05-102
Description: To measure inhibitor activity of Aurora B inhibitors in the Caliper Life Sciences LC3000, a TTP Mosquito liquid handling instrument was used to place 0.25 ul of the appropriate concentration of inhibitor in 100% DMSO (for a dose response curve calculation) into each well of a 384-well plate. To this reaction components was added to a final volume of 25 ul: • 0.1 ng/ul GST-Aurora B (1-344 amino acids), (Carna Biosciences 05-102. N-terminal GST fusion with His tagged INCEP, accession number Q96GD4). • 10 uM ATP (Fluka, 02055) • 1 mM DTT (Sigma, D0632) • 1 mM MgCl2 (Sigma, M1028) • 1 uM substrate peptide (sequence FITC-LRRASLG-(CONH2), synthesized by Tufts Peptide Synthesis service. • 100 mM HEPES pH 7.5 (Calbiochem, 391338) • 0.015% Brij-35 (Sigma, B4184)
(§1) The reaction was incubated for 90 min at 25 C, and then stopped by the addition of 70 ul of Stop buffer (100 mM HEPES pH 7.5, 0.015% Brij-35, 10 mM EDTA (Sigma, E7889)).
The plate was read on a Caliper LC 3000 in an Off-Chip mobility shift assay format, using the following parameters for a 12-sipper chip: screening pressure −1.8 psi, upstream voltage −2700, downstream voltage −1000. These conditions caused unphosphorylated substrate and phosphorylated product peptide to resolve as separate peaks allowing direct measurement of percentage of conversion of substrate to product. The percent conversion was plotted against concentration of inhibitor to produce a sigmoidal dose response curve, from which an IC50 was calculated using XLFit for Microsoft Excel.

P70S6K (T412E mutant) = target: T2, P70S6K (T412E mutant) (Homo sapiens, UniProt P23443, T412E); experiment: p70S6K Enzyme Assay; format: biochemical; settings: 24 μM ATP, 90 min at 25° C., Caliper mobility shift
T2 construct: purchased Millipore
Description: p70S6K inhibitor compounds were diluted and plated in 96 well plates. A reaction mixture including the following components were then added to the compound plate to initiate the enzyme reaction; P70S6K (3 nM, T412E mutant, Millipore) was mixed with 24 μM ATP in an assay buffer containing 100 mM Hepes (pH 7.5), 5 mM MgCl2, 1 mM DTT, 0.015% Brij and 1 μM of the substrate peptide FITC-AHA-AKRRRLSSLRA-OH (derived from the S6 ribosomal protein sequence, FITC=fluorescein isothiocyanate, AHA=6-aminohexanoic acid). The reaction was incubated for 90 min at 25° C., before the addition of 10 mM EDTA to stop the reaction. The proportion of substrate and product (phosphorylated) peptide was analysed on a Caliper Life Sciences Lab Chip 3000, using a pressure of −1.4 psi, and upstream and downstream voltages of −3000 and −700 respectively. Product peaks were resolved before substrate peaks on the resulting chromatograms.
To assess the inhibitory potential of the compounds, IC50-values were determined, as shown in Chemical Synthesis section above.

pS6 MDA-MB-468 = experiment: Cellular Activity Assay (phospho-S6 in MDA-MB-468 cells); format: cell-based; settings: Homo sapiens, 2 hr compound incubation, percent pS6-positive cells
Description: MDA-MB-468 cells were grown in DMEM containing glutamine supplemented with 10% Fetal Bovine Serum (FBS) and 1× antibiotics. Cells were maintained by splitting 1:3 twice a week.
For the assay, cells were plated the evening before at a density of 4000 cells per well in black polyD lysine coated 384 well plates. Cells were incubated overnight (16 to 20 hours) in growth media. Compounds at an appropriate concentration were added to the wells and incubated for 2 hr. Controls included: i) no primary, ii) rabbit isotype, iii) propidium iodide (red) only and iv) anti-phospho-S6 antibody alone (green only). Cells were then fixed in 4% paraformaldehyde for 15-20 minutes at room temperature, then washed 3×80 ul with PBS.
50 ul 10% normal goat serum (NGS) with 0.2% triton X 100 in PBS were added and incubated for 30 to 60 minutes at room temperature. Anti-phospho-S6 antibody was diluted 1:800 2% with NGS in 0.2% TritonX-100 and 30 ul added to appropriate wells. The wells were incubated overnight at 4 degrees Celsius.
Then the wells were washed with 3×80 uL PBS. The secondary green fluorescence labeled antibody (Alexa Fluor® 488 F(ab′)2 fragment goat Anti-rabbit IgG (H+L)), was diluted 1:1500 in 2% NGS with 0.2% TritonX-100, and 30 ul were added to the appropriate wells which were then incubated in the dark at room temperature for 60 minutes. Then they were washed with 4×80 ul PBS. Propidium iodide (1.5 mM stock) was diluted 1:1000 in PBS, and 50 ul were added to the appropriate wells and incubated for 30 minutes at room temperature in the dark. Propidium iodide was not washed out. Plates were read on the Acumen Explorer.
Red and green cell populations were determined using controls. The number of green cells (pS6) and total number of cells (red) were then counted and the percentage of green cells was calculated. Percent positive cell data was plotted on a log scale against concentration of compounds and IC50 values were calculated from dose response curves.

Akt1 = target: T3, Akt1 (Homo sapiens, UniProt P31749); experiment: AKT/PKB Kinase Assay; format: biochemical; settings: His-AKT (Full Length), 160 uM ATP, 90 min at 25 C
T3 construct: 0.1 ng/ul His-AKT (Full Length), (Invitrogen, Part #P2999, Lot #641228C); His; purchased Invitrogen P2999
Description: In order to measure AKT inhibition in the Caliper Life Sciences LC3000, a TTP Mosquito liquid handling instrument was used to place 125 nl of the appropriate concentration of inhibitor in 100% DMSO (for a dose response curve calculation) into each well of a 384-well plate. To this reaction components were added to a final volume of 12.5 ul: • 0.1 ng/ul His-AKT (Full Length), (Invitrogen, Part #P2999, Lot #641228C) • 160 uM ATP (Fluke, 02055) • 1 mM DTT (Sigma, D0632) • 1 mM MgCl2 (Sigma, M1028) • 1 uM substrate peptide (sequence FITC-AHA-GRPRTSSFAEG-NH2), synthesized by Tufts Peptide Synthesis service. • 100 mM HEPES pH 7.5 (Calbiochem, 391338) • 0.015% Brij-35 (Sigma, B4184)
as §1
The plate was read on a Caliper LC 3000 in an Off-Chip mobility shift assay format, using the following parameters for a 12-sipper chip: screening pressure −2.3 psi, upstream voltage −500, and downstream voltage −3000.
These conditions cause unphosphorylated substrate and phosphorylated product peptide to resolve as separate peaks allowing direct measurement of percentage of conversion of substrate to product. The percent conversion was plotted against concentration of inhibitor to produce a sigmoidal dose response curve, from which an IC50 was calculated.

T3 sequence (P31749 whole entry): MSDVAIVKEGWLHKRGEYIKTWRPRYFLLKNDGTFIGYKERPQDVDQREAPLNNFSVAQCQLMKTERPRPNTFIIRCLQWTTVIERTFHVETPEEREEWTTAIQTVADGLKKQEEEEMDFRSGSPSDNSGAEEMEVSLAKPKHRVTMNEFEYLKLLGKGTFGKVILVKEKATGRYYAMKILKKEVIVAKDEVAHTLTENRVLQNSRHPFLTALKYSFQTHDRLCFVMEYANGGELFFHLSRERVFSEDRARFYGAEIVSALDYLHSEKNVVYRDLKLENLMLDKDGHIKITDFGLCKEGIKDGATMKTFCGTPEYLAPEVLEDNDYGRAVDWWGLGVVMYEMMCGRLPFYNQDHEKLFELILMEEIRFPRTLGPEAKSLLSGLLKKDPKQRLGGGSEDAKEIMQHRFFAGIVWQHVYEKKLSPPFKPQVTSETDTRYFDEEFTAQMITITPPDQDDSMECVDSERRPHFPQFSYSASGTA
T1 sequence (Q96GD4 whole entry, the tested form may be a part): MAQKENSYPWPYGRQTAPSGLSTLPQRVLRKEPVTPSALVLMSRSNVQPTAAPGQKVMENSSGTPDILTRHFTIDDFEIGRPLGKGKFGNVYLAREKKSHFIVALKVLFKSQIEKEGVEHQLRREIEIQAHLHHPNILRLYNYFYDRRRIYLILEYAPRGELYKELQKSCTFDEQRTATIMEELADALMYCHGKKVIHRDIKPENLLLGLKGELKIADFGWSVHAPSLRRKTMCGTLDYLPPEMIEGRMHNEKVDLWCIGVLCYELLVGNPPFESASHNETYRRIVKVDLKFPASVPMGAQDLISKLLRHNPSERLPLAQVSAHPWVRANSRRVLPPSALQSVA
T1 sequence (Q9NQS7 803-918 partner limits assumed): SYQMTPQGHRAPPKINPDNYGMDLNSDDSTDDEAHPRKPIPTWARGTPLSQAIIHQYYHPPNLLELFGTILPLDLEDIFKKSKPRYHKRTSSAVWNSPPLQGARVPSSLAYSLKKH
T2 sequence (P23443 1-421 T412E limits assumed): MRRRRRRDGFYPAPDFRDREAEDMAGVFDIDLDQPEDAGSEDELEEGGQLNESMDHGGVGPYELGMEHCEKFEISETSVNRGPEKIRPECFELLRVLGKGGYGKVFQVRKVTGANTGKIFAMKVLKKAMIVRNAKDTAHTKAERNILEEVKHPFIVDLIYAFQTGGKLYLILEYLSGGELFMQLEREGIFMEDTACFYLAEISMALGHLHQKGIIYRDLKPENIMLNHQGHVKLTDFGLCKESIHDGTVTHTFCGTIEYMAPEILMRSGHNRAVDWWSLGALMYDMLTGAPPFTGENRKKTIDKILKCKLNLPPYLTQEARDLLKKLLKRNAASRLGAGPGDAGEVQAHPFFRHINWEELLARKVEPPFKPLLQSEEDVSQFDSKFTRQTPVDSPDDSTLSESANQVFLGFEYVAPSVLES

| IC50 (Aurora B) | IC50 (P70S6K (T412E mutant)) | IC50 (pS6 MDA-MB-468) | IC50 (Akt1) | SMILES |
| --- | --- | --- | --- | --- |
| 69 nM | 1.1 nM | 86 nM | 25 nM | NC(=O)c1cccc2c(N[C@H](CN3CCC3)c3ccc(Cl)cc3F)ncnc12 [Example 14, 4-[(S)-2-Azetidin-1-yl-1-(2-fluoro-4-chlorophenyl)-ethylamino]-quinazoline-8-carboxylic acid amide] |
| 56 nM | 1.2 nM | 74 nM | 4.1 nM | NC(=O)c1cccc2c(N[C@H](CN3CCC3)c3ccc(F)c(F)c3)ncnc12 [Example 4, 4-[(S)-2-Azetidin-1-yl-1-(3,4-difluorophenyl)-ethylamino]-quinazoline-8-carboxylic acid amide] |
| 690 nM | 3.3 nM | 382 nM | 270 nM | N#Cc1cccc([C@@H](CN2CCC2)Nc2ncnc3c(C(N)=O)cccc23)c1 [Example 11, 4-[(S)-2-Azetidin-1-yl-1-(3-cyanophenyl)-ethylamino]-quinazoline-8-carboxylic acid amide] |
| 58 nM | 1.3 nM | 1.3 nM | 12 nM | NC(=O)c1cccc2c(N[C@H](CN3CCC3)c3ccc(F)c(Cl)c3)ncnc12 [Example 7, 4-[(S)-2-Azetidin-1-yl-1-(3-chloro-4-fluorophenyl)-ethylamino]-quinazoline-8-carboxylic acid amide] |
| 69 nM | 4 nM | 484 nM | 21 nM | COc1cc([C@@H](CN2CCC2)Nc2ncnc3c(C(N)=O)cccc23)ccc1F [Example 43, 4-[(S)-2-Azetidin-1-yl-1-(4-fluoro-3-methoxy-phenyl)-ethylamino]-quinazoline-8-carboxylic acid amide] |
| 230 nM | 5.3 nM | 359 nM | 98 nM | NC(=O)c1cccc2c(N[C@H](CN3CCC3)c3cc(F)ccc3F)ncnc12 [Example 26, 4-[(S)-2-Azetidin-1-yl-1-(2,5-di-fluoro-phenyl)-ethylamino]-quinazoline-8-carboxylic acid amide] |
| 650 nM | 3.3 nM | 246 nM | 83 nM | N#Cc1cc([C@@H](CN2CCC2)Nc2ncnc3c(C(N)=O)cccc23)ccc1F [Example 39, 4-[(S)-2-Azetidin-1-yl-1-(3-cyano-4-fluorophenyl)-ethylamino]-quinazoline-8-carboxylic acid amide] |

Continued, compound first:

| SMILES | IC50 (Aurora B) | IC50 (P70S6K (T412E mutant)) | IC50 (pS6 MDA-MB-468) | IC50 (Akt1) |
| --- | --- | --- | --- | --- |
| NC(=O)c1cccc2c(N[C@H](CN3CCC3)c3ccc(Cl)c(C(F)(F)F)c3)ncnc12 [Example 5, 4-[(S)-2-Azetidin-1-yl-1-(4-chloro-3-trifluoromethylphenyl)-ethylamino]-quinazoline-8-carboxylic acid amide] | 100 nM | 0.9 nM | 11 nM | 1.4 nM |
| NC(=O)c1cccc2c(N[C@H](CN3CCC3)c3ccc4c(c3)OCO4)ncnc12 [Example 20, 4-[(S)-2-Azetidin-1-yl-1-(1-benzo[1,3]dioxol)-ethylamino]-quinazoline-8-carboxylic acid amide] | 300 nM | 1.7 nM | 68 nM | 120 nM |
| CC1CN(C[C@@H](Nc2ncnc3c(C(N)=O)cccc23)c2ccc(F)c(C(F)(F)F)c2)C1 [Example 46, 4-[(S)-1-(4-Fluoro-3-trifluoromethyl-phenyl)-2-(3-methyl-azetidin-1-yl)-ethylamino]-quinazoline-8-carboxylic acid amide] | 390 nM | 4.9 nM | 427 nM | 7.5 nM |
| COc1c(F)cc([C@@H](CN2CCC2)Nc2ncnc3c(C(N)=O)cccc23)cc1F [Example 38, 4-[(S)-2-Azetidin-1-yl-1-(3,5-difluoro-4-methoxyphenyl)-ethylamino]-quinazoline-8-carboxylic acid amide] | 280 nM | 1.8 nM | 113 nM | 140 nM |
| NC(=O)c1cccc2c(N[C@H](CN3CCC3)c3cc(F)c(F)cc3F)ncnc12 [Example 18, 4-[(S)-2-Azetidin-1-yl-1-(2,4,5-trifluorophenyl)-ethylamino]-quinazoline-8-carboxylic acid amide] | 220 nM | 3.8 nM | 85 nM | 36 nM |
| NC(=O)c1cccc2c(N[C@H](CN3CC(F)C3)c3ccc(F)c(C(F)(F)F)c3)ncnc12 [Example 49, 4-[(S)-2-(3-Fluoro-azetidin-1-yl)-1-(4-fluoro-3-trifluoromethyl-phenyl)-ethylamino]-quinazoline-8-carboxylic acid amide] | 540 nM | 5 nM | 116 nM | 16 nM |
| NC(=O)c1cccc2c(N[C@H](CN3CCC3)c3ccc(F)cc3)ncnc12 [Example 3, 4-[(S)-2-Azetidin-1-yl-1-(4-fluorophenyl)-ethylamino]-quinazoline-8-carboxylic acid amide] | 41 nM | 7.8 nM | 103 nM | 23 nM |
| NC(=O)c1cccc2c(N[C@H](CN3CCC3)c3ccc(Br)cc3)ncnc12 [Example 8, 4-[(S)-2-Azetidin-1-yl-1-(4-bromophenyl)-ethylamino]-quinazoline-8-carboxylic acid amide] | 65 nM | 1.6 nM | 39 nM | 48 nM |
| NC(=O)c1cccc2c(N[C@H](CN3CCC3)c3cccc(Br)c3)ncnc12 [Example 13, 4-[(S)-2-Azetidin-1-yl-1-(3-bromophenyl)-ethylamino]-quinazoline-8-carboxylic acid amide] | 17 nM | 0.3 nM | 25 nM | 5 nM |
